Assay results: PMC5428509, “Irreversible inhibition of BTK kinase by a novel highly selective inhibitor CHMFL-BTK-11 suppresses inflammatory response in rheumatoid arthritis model” (Scientific Reports, 2017)

Assays:
Experiment in all cases: biochemical
Set-up in all cases: KinomeScan competition binding panel (DiscoveRx), percent of control at 1 uM
Conditions in all cases: read-out: Percent Control
PAK3 = PAK3 (Homo sapiens, UniProt O75914)
In short: (§1)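 Selectivity profiled across 456 kinases/mutants by KinomeScan binding technology.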

RIPK5 = target: T1, RIPK5 (Homo sapiens, UniProt Q6XUX3)
T1 construct: gene DSTYK
In short: as §1

MELK = MELK (Homo sapiens, UniProt Q14680)
Chain of MELK (Q14680 whole entry): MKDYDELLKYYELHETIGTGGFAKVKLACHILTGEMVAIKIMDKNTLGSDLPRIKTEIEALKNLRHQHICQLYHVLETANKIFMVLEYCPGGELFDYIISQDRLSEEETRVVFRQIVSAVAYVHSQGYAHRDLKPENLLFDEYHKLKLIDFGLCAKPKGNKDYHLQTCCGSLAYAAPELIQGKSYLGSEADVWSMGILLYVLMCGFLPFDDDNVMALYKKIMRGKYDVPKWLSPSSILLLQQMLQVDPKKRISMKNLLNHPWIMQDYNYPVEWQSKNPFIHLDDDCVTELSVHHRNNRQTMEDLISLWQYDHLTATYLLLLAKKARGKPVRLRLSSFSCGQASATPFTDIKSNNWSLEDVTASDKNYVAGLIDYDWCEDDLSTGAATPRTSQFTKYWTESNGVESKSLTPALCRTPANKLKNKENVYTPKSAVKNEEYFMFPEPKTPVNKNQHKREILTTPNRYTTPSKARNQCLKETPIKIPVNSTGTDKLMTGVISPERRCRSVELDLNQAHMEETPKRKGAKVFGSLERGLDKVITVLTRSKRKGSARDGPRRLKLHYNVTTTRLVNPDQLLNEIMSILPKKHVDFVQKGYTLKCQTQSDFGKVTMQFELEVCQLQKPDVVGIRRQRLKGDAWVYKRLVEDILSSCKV
In short: as §1

BLK = BLK (Homo sapiens, UniProt P51451)
Chain of BLK (P51451 whole entry): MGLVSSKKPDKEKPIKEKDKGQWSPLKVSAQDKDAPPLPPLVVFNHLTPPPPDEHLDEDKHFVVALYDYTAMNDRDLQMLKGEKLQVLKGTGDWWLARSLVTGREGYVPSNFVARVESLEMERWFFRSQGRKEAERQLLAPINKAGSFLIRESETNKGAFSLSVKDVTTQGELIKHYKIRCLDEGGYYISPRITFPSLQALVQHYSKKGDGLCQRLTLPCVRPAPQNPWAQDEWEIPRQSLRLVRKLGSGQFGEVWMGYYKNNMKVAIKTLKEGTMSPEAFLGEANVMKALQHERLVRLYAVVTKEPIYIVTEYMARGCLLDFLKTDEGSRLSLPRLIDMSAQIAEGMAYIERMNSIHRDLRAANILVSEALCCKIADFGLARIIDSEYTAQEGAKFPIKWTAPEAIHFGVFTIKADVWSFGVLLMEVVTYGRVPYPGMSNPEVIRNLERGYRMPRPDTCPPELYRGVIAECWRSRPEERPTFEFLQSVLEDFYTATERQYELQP
In short: as §1

CDK4-cyclinD1 = target: T2, CDK4-cyclinD1 (Homo sapiens, UniProt P11802)
T2 construct: cyclinD1
In short: as §1

GRK4 = GRK4 (Homo sapiens, UniProt P32298)
In short: as §1

CSNK1A1 = CSNK1A1 (Homo sapiens, UniProt P48729)
Chain of CSNK1A1 (P48729 whole entry): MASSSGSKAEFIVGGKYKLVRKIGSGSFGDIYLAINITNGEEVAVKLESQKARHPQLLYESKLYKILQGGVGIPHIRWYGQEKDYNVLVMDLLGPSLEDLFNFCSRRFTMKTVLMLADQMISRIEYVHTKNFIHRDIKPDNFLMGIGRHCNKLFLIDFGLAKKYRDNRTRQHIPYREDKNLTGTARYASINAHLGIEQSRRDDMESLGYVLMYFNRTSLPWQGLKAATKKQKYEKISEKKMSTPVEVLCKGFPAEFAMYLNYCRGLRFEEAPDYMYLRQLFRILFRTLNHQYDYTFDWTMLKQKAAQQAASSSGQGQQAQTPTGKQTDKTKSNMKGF
In short: as §1

[1] = target: T3, ABL1(T315I)-nonphosphorylated (Homo sapiens, UniProt P00519, T315I)
T3 construct: nonphosphorylated
In short: as §1

NEK9 = NEK9 (Homo sapiens, UniProt Q8TD19)
In short: as §1

PIK3CA(E545A) = PIK3CA(E545A) (Homo sapiens, UniProt P42336, E545A)
In short: as §1

PLK1 = PLK1 (Homo sapiens, UniProt P53350)
In short: as §1

LATS1 = LATS1 (Homo sapiens, UniProt O95835)
In short: as §1

ANKK1 = ANKK1 (Homo sapiens, UniProt Q8NFD2)
In short: as §1

DMPK2 = target: T4, DMPK2 (Homo sapiens, UniProt Q6DT37)
T4 construct: gene CDC42BPG
In short: as §1

[2] = target: T5, RSK4(Kin.Dom.2-C-terminal) (Homo sapiens, UniProt Q9UK32)
T5 construct: gene RPS6KA6; Kin.Dom.2-C-terminal
In short: as §1

RIOK3 = RIOK3 (Homo sapiens, UniProt O14730)
In short: as §1

KIT = KIT (Homo sapiens, UniProt P10721)
In short: as §1

PRKCH = PRKCH (Homo sapiens, UniProt P24723)
Chain of PRKCH (P24723 whole entry): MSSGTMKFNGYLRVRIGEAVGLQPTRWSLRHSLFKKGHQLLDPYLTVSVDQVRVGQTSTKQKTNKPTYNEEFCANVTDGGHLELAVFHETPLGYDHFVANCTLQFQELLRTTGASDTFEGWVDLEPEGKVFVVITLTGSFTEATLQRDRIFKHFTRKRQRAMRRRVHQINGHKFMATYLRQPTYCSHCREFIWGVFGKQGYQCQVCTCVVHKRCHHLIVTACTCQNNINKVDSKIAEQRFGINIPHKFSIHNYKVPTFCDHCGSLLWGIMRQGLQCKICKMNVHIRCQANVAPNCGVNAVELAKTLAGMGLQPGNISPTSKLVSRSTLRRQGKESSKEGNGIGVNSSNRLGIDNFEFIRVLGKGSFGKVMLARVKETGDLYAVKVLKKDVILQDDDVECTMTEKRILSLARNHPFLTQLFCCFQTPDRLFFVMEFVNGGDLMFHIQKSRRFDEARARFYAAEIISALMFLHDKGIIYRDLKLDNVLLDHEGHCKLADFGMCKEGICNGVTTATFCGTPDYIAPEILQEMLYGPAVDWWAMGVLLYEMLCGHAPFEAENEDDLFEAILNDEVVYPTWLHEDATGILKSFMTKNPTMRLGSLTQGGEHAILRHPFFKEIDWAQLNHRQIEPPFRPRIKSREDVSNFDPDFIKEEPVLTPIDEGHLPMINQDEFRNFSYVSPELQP
In short: as §1

NEK11 = NEK11 (Homo sapiens, UniProt Q8NG66)
Chain of NEK11 (Q8NG66 whole entry): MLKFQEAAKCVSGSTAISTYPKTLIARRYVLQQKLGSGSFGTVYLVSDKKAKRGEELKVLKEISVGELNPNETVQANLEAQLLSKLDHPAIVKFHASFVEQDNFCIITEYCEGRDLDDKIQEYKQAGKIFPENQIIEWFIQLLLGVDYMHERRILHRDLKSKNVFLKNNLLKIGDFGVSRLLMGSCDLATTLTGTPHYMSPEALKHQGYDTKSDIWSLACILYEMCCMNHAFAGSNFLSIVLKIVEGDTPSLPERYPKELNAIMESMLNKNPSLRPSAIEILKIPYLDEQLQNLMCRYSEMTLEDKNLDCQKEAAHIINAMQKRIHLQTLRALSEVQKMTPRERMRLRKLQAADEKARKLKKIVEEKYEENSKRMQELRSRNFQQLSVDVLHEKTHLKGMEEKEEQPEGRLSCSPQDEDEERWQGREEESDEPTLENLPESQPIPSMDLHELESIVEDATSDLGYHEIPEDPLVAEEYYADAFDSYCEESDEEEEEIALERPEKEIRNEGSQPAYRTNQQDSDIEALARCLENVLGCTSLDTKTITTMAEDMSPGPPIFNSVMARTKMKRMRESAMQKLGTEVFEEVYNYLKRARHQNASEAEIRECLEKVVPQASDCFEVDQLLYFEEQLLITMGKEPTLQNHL
In short: as §1

NDR2 = target: T6, NDR2 (Homo sapiens, UniProt Q9Y2H1)
T6 construct: gene STK38L
T6 sequence (Q9Y2H1 whole entry): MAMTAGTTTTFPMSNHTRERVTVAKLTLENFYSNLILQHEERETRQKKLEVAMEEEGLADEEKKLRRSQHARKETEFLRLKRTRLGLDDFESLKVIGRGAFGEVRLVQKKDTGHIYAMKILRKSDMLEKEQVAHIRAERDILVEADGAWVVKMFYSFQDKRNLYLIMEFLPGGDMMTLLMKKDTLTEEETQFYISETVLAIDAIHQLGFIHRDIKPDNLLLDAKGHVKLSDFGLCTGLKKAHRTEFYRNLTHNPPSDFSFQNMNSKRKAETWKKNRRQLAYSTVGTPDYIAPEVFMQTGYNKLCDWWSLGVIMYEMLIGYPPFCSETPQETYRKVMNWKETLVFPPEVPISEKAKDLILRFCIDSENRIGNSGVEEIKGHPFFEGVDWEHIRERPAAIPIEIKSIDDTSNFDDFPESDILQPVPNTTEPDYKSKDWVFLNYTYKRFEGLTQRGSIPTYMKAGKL
In short: as §1

FGFR4 = FGFR4 (Homo sapiens, UniProt P22455)
In short: as §1

[3] = target: T7, JAK2(JH1domain-catalytic) (Homo sapiens, UniProt O60674)
T7 construct: JH1domain-catalytic
In short: as §1

EPHA4 = EPHA4 (Homo sapiens, UniProt P54764)
Chain of EPHA4 (P54764 whole entry): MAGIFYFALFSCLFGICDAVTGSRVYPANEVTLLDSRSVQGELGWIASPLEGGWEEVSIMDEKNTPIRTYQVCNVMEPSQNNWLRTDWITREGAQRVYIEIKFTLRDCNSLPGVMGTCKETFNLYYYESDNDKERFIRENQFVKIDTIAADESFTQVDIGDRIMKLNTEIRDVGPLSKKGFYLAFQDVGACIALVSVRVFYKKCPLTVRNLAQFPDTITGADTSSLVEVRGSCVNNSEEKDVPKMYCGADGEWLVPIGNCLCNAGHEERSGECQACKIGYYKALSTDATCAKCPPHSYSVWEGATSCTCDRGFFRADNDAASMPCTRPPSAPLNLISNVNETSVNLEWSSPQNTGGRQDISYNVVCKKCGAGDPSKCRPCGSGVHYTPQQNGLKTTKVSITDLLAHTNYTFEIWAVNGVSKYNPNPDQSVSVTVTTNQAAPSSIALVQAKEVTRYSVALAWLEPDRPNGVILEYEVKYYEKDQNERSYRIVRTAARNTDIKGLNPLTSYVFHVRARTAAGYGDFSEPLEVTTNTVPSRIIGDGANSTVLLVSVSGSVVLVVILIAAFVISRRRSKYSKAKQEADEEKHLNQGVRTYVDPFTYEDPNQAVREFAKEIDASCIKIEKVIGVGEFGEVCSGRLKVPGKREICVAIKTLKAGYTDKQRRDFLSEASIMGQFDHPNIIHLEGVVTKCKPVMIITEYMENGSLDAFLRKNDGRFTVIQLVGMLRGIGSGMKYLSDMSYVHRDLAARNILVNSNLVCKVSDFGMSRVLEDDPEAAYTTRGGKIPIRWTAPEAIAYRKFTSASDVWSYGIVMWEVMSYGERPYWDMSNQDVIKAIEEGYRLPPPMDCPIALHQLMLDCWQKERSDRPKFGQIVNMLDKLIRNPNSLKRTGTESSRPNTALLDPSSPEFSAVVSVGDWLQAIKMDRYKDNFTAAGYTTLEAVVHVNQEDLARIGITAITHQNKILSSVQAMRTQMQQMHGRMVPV
In short: as §1

IRAK1 = IRAK1 (Homo sapiens, UniProt P51617)
Chain of IRAK1 (P51617 whole entry): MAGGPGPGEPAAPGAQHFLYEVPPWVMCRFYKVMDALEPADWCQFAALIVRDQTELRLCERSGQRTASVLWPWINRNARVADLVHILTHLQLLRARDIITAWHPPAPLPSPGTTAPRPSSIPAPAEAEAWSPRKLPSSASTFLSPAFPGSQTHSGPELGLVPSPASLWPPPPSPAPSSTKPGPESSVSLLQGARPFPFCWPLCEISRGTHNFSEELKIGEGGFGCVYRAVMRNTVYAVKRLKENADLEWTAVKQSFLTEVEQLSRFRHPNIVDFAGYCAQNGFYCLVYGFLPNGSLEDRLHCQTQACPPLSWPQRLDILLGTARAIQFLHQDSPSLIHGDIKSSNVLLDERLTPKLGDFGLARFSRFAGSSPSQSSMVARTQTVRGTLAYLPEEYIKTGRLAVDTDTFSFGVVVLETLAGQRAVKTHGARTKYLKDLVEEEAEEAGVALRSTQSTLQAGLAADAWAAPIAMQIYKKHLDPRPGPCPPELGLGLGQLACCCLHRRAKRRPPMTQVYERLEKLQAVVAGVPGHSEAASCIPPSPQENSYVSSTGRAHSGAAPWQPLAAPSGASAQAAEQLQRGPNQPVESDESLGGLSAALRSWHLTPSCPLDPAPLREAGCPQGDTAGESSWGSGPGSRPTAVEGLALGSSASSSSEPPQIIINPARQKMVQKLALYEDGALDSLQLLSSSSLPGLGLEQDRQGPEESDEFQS
In short: as §1

PCTK3 = target: T8, PCTK3 (Homo sapiens, UniProt Q07002)
T8 construct: gene CDK18
In short: as §1

C=CC(=O)Nc1cc(-n2c(=O)ccc3cnc4ccc(-n5cccn5)cc4c32)ccc1C [CHMFL-BTK-11]
remaining binding at 1 µM (PAK3): 94% | remaining binding at 1 µM (RIPK5): 99% | remaining binding at 1 µM (MELK): 73% | remaining binding at 1 µM (BLK): 30% | remaining binding at 1 µM (CDK4-cyclinD1): 97% | remaining binding at 1 µM (GRK4): 94% | remaining binding at 1 µM (CSNK1A1): 100% | remaining binding at 1 µM [1]: 79% | remaining binding at 1 µM (NEK9): 100% | remaining binding at 1 µM (PIK3CA(E545A)): 76% | remaining binding at 1 µM (PLK1): 99% | remaining binding at 1 µM (LATS1): 99% | remaining binding at 1 µM (ANKK1): 81% | remaining binding at 1 µM (DMPK2): 99% | remaining binding at 1 µM [2]: 100% | remaining binding at 1 µM (RIOK3): 80% | remaining binding at 1 µM (KIT): 100% | remaining binding at 1 µM (PRKCH): 84% | remaining binding at 1 µM (NEK11): 96% | remaining binding at 1 µM (NDR2): 99% | remaining binding at 1 µM (FGFR4): 100% | remaining binding at 1 µM [3]: 78% | remaining binding at 1 µM (EPHA4): 100% | remaining binding at 1 µM (IRAK1): 87% | remaining binding at 1 µM (PCTK3): 90%
